The values below come from patent US11793794B2, “Combination therapy for treating or preventing depression or other mood diseases” (YALE UNIVERSITY, priority 2018, dated 2023).

For this assay, the system named is patients with major depression. The assay can be described thus: double-blind placebo-controlled crossover study: rapamycin or placebo 2 hours before ketamine infusion, depression severity (MADRS). The class given is in vivo, human. Here is the method:
The present studies address a longstanding question in the field—whether the antidepressant effects of ketamine depend upon its capacity to stimulate a key protein known as the mechanistic target for rapamycin (mTOR). If that is indeed the case, ketamine's effects should be reduced when mTOR is inhibited. To test this hypothesis, a double-blind placebo-controlled crossover study was conducted under fully randomized conditions, whereby one set of patients was treated with the mTOR inhibitor rapamycin, an FDA approved drug that is currently used to treat certain immune disorders and cancers.
In this design, symptomatic antidepressant-treated patients with major depression who have a history of non-response to at least one prior antidepressant trial were recruited and studied over 3 years. Participants completed two ketamine infusion test days separated by at least two weeks. On each ketamine test day, patients were randomized to take a “loading dose” of rapamycin or placebo 2 hours before receiving an intravenous infusion of ketamine. The primary outcome measure of the study was the severity of depression, as measured by the Montgomery Åsberg Depression Rating Scale (MADRS). […]
Depression severity was assessed at baseline, and at 4 h, 24 h, 1 week, and 2 weeks post treatment. […]

`CNC1(c2ccccc2Cl)CCCCC1=O` (racemic) [ketamine, (RS)-2-(2-Chlorophenyl)-2-(methylamino)cyclohexanone] came in with a time to relapse (placebo prior to 0.5 mg/kg iv ketamine, MADRS) of at most 2 weeks. Besides, the “duration of benefits produced by ketamine” value (single ketamine infusion without rapamycin) was “a few days”.
